Reference: article PMC4689404, “2-Benzazolyl-4-Piperazin-1-Ylsulfonylbenzenecarbohydroxamic Acids as Novel Selective Histone Deacetylase-6 Inhibitors with Antiproliferative Activity” (PLoS ONE, 2015)
Where two headings read alike, the source gives them in different places. Values belong to the molecule of their own block, whether it stands above or below them.

Legend:
HCC4018 = assay: MTS viability assay; format: cell-based, human; details: for IC50: Patient B cancer line, MTS, 4 days, read-out: Antiproliferative activity IC50, HCC4018; for Selectivity (HBEC-34KT vs HCC4018): Patient B
Procedure: (§1) Immortalized normal human bronchial epithelial cells (also provided by Dr. John D. Minna) were cultured in KSFM supplemented with pituitary extract and EGF. For viability assays, cells were plated on 96 well plates and grown overnight. Cells were then exposed to increasing doses of the indicated compounds for 4 days and their viability assayed using the Promega Cell Titer 96 AQueous One kit per the manufacturer’s protocol. All doses were tested in 4–8 replicates. IC50 values were calculated using the in-house software DIVISA.

HCC4017 = assay: MTS viability assay; format: cell-based, human; details: for IC50: Patient A cancer line, MTS, 4 days, read-out: Antiproliferative activity IC50, HCC4017; for Selectivity (HBEC-30KT vs HCC4017): Patient A
Procedure: as §1

HBEC-30KT = assay: MTS viability assay; format: cell-based, human; details: Patient A normal line, 4 days, read-out: Antiproliferative activity IC50, HBEC-30KT
Procedure: as §1, with “Lung cancer cells (kindly provided by Dr. John D. Minna, [13, 21]) were maintained in RPMI 1640 media supplemented with 10% FBS. Immortalized” for “Immortalized”

HBEC-34KT = assay: MTS viability assay; format: cell-based, human; details: Patient B normal line, 4 days, read-out: Antiproliferative activity IC50, HBEC-34KT
Procedure: as §1, with “Lung cancer cells (kindly provided by Dr. John D. Minna, [13, 21]) were maintained in RPMI 1640 media supplemented with 10% FBS. Immortalized” for “Immortalized”

[1] = test system: epigenetically silenced GFP transgene in LDR cells; assay: locus derepression (LDR) assay, GFP induction; format: cell-based; parameters: key to GFP Induc.: -: —negative; details: for GFP Induc.: Fig 4
Procedure: LDR cells were maintained in DMEM with L-glutamine and high glucose, 1 mM sodium pyruvate, 0.1 mM MEM non-essential amino acids, 1% v/v penicillin-streptomycin and 10% heat inactivated FBS. Cells were seeded on glass bottom chambers at low-medium density and allowed to attach overnight. Compounds were then added for 24h at the indicated dose and cells were imaged under a fluorescent microscope equipped with a camera using a 20 or 40X objective. All images shown were exposed for identical time.

[2] = target: T1, partially purified HDAC1 from mouse A20 cells (Mus musculus, UniProt O09106); assay: HDAC1 activity assay, partially purified enzyme, [3H]acetate-prelabeled histones; format: biochemical; details: Table 3; partially purified HDAC1; read-out: HDAC1 IC50
T1 construct: from mouse A20 cells was used as enzyme source; endogenous in cells; host or cells: mouse A20 cells
T1 sequence (O09106 whole entry): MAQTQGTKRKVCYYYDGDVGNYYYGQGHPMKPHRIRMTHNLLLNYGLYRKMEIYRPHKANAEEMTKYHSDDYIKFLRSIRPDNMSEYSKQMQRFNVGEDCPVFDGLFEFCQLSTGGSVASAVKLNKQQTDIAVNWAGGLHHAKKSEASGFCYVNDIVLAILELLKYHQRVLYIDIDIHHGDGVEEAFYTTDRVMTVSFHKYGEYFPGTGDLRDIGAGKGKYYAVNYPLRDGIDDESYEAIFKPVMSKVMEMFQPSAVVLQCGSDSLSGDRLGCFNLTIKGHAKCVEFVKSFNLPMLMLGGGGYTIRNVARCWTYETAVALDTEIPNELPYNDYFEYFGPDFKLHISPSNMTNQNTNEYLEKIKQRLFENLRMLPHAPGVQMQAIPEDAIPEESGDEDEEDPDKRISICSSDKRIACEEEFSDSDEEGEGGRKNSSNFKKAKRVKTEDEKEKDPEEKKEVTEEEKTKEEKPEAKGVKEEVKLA
Excerpt: For inhibition assays, partially purified HDAC1 (70–80 fold enriched relative to crude samples) from mouse A20 cells was used as enzyme source. HDAC1 activity was purified by a combination of anion exchange chromatography (Mono Q), affinity chromatography (Poly-lysin agarose, Heparin Sepharose) and TSK size exclusion chromatography (Jesacher and Loidl, unpublished). HDAC1 protein was identified by immunoblotting using anti mouse HDAC1 antibodies (collaboration with Zymed Laboratories, Inc., San Francisco, California, USA). HDAC activity was determined as described by Sendra et al., [20] using [^3H]acetate-prelabeled chicken reticulocyte histones as substrate. 50 μL of mouse HDAC1 were incubated with different concentrations of compounds for 10 min on ice and 10 μL of total [^3H] acetate pre-labeled chicken reticulocyte histones (4 mg/mL) were added, resulting in a concentration of 41 μM. This mixture was incubated at 37°C for 1 h. The reaction was stopped by addition of 50 μL of 1 M HCl/0.4 M acetylacetate and 1 mL ethylacetate. After centrifugation at 10000 x g for 5 min an aliquot of 600 μL of the upper phase was counted for radioactivity in 3 mL liquid scintillation cocktail.

recombinant HDAC6 = target: T2, recombinant HDAC6 (Homo sapiens, UniProt Q9UBN7); assay: comparative HDAC inhibition assay (Millipore fluorometric kit); format: biochemical; details: for IC50: read-out: HDAC6 IC50
T2 construct: purchased Epigenetek
T2 sequence (Q9UBN7 1-1215): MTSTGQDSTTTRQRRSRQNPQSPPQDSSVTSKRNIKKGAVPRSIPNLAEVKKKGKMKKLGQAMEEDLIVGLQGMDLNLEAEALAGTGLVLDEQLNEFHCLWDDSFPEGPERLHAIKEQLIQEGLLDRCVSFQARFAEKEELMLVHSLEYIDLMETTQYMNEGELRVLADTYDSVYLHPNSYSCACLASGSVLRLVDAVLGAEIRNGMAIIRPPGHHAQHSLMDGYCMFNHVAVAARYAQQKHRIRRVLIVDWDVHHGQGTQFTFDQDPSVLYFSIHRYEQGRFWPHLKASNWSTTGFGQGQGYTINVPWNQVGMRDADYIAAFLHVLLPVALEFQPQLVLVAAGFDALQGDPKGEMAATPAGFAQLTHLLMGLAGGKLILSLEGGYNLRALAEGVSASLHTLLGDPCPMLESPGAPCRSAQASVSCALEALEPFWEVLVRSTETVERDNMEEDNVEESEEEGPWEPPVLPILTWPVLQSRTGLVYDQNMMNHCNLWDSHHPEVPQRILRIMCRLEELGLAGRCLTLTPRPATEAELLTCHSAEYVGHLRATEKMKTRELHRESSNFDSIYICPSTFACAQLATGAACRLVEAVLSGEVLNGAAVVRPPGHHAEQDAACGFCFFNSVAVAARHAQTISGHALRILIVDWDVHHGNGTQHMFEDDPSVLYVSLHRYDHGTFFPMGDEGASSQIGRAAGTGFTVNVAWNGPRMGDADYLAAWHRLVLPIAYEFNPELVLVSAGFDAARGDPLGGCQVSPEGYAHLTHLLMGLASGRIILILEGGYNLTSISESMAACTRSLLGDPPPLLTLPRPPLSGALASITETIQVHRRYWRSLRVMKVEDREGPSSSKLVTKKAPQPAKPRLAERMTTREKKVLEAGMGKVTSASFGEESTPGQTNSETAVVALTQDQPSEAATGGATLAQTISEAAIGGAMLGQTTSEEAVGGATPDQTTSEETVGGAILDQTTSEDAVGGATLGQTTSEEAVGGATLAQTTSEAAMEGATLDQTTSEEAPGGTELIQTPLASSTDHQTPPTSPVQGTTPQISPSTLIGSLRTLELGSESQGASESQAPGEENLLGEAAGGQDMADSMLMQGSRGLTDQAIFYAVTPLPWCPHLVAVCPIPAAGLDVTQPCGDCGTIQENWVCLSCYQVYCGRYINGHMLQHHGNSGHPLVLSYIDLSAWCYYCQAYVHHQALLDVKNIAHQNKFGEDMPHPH
Procedure: (§2) For the direct comparison of HDAC1 vs. HDAC6 inhibition, HDAC activity was analyzed using the HDAC Assay Kit from Millipore (17–356). Briefly, recombinant HDAC1 or recombinant HDAC6 (both purchased from Epigenetek, Purity of HDAC1 is more than 60% and purity HDAC6 is more than 85%). was incubated with the fluorometric HDAC substrate according to the manufacturer’s protocol in the presence of DMSO vehicle or increase compound doses. In a secondary activator reaction, the fluorophore is only cleaved from the deacetylated substrate, allowing for quantification. Fluorescence was quantified on a FLUOstar-Optima or a FLUOstar Omega plate reader (BMG Biosciences).

recombinant HDAC1 = target: T3, recombinant HDAC1 (Homo sapiens, UniProt Q13547); assay: as above; format: biochemical; details: recombinant HDAC1, fluorometric substrate; Table 4
T3 construct: purchased Epigenetek
T3 sequence (Q13547 whole entry): as the sequence (O09106 whole entry) above, with K8R, E399D, D424E counted along it
Procedure: as §2

HDAC1 [3] = details: read-out: HDAC1 IC50; Table 4; cited from earlier work
HDAC6 = details: read-out: HDAC6 IC50; Table 4; cited from earlier work
HDAC1 [4] = details: Table 4; cited from earlier work

melting point: 349 to 350 °C
SMILES: O=C(NO)c1cccc(S(=O)(=O)N2CCN(c3nc4ccccc4[nH]3)CC2)c1 [Compound 8a, 3-[4(1H -Benzimidazol-2-yl)-piperazin-1-sulfonyl]-N -hydroxy-benzamid]
GFP Induc. [1]: -

melting point: 167 to 169 °C
IC50 [2]: 316 µM
SMILES: Cn1c(N2CCN(S(=O)(=O)c3cccc(C(=O)NO)c3)CC2)nc2ccccc21 [Compound 8b, 3-[4-(1-Methyl-Benzimidazol-2-yl)-piperazin-1-sulfonyl]-N -hydroxy-benzamid]
GFP Induc. [1]: -

melting point: 257 to 262 °C
IC50 [2]: 216 µM
SMILES: O=C(NO)c1cccc(S(=O)(=O)N2CCN(c3nc4ccccc4o3)CC2)c1 [Compound 8c, 3-(4-Benzoxazol-2-yl-piperazin-1-sulfonyl)-N -hydroxy-benzamid]
GFP Induc. [1]: -

melting point: 207 to 210 °C
IC50 [2]: 140 µM
SMILES: O=C(NO)c1cccc(S(=O)(=O)N2CCN(c3nc4ccccc4s3)CC2)c1 [Compound 8d, 3-(4-Benzothiazol-2-yl-piperazin-1-sulfonyl)-N -hydroxy-benzamid]
GFP Induc. [1]: -

IC50 (HCC4018; Homo sapiens, 96 h): > 10 µM
IC50 (HCC4017; Homo sapiens, HCC4017, 96 h): > 10 µM
melting point: 382 to 383 °C (dec.)
IC50 (recombinant HDAC6; Table 3): 1 µM
Selectivity Index HDAC1/HDAC6 (recombinant HDAC6; Table 4): 6.5
IC50 (recombinant HDAC6; recombinant HDAC6, fluorometric substrate, Table 4): 0.93 ± 0.75 µM
IC50 (recombinant HDAC1): 6 ± 2.9 µM
IC50 [2]: 12.4 µM
SMILES: O=C(NO)c1ccc(S(=O)(=O)N2CCN(c3nc4ccccc4[nH]3)CC2)cc1 [Compound 9a, 4-[4(1H-Benzimidazol-2-yl)-pipreazin-1-sulfonyl]-N-hydroxy-benzamid]
cellular activity (HCC4017; MTS viability, lung cancer and normal lines): no cellular activity
GFP induction / activity in the LDR assay [1]: inactive
GFP Induc. [1]: -
IC50 (HBEC-30KT; Homo sapiens, 96 h): > 10 µM
IC50 (HBEC-34KT; Homo sapiens, 96 h): > 10 µM

Further lines, the molecule ahead of its results:

SMILES: CCC(=O)CCCCC[C@@H]1NC(=O)[C@H]2CCCCN2C(=O)[C@H]([C@@H](C)CC)NC(=O)[C@H](Cc2cn(OC)c3ccccc23)NC1=O [Apicidin, reference compound]
IC50 (HCC4018; Homo sapiens, 96 h): 0.03 µM
Selectivity (HBEC-34KT vs HCC4018) (HCC4018): 26.3
selectivity higher by a factor compared to compounds 9b-d (HCC4018; cells derived from patient B): 7–13 fold
IC50 (HCC4017; Homo sapiens, HCC4017, 96 h): 0.12 µM
Selectivity (HBEC-30KT vs HCC4017) (HCC4017): 0.75
IC50 (HBEC-30KT; Homo sapiens, 96 h): 0.09 µM
IC50 (HBEC-34KT; Homo sapiens, 96 h): 0.79 µM

SMILES: C/C=C1\NC(=O)[C@H]2CSSCC/C=C/[C@H](CC(=O)N[C@H](C(C)C)C(=O)N2)OC(=O)[C@H](C(C)C)NC1=O [Depsi., Depsipeptide, reference compound]
Selectivity (HBEC-34KT vs HCC4018) (HCC4018): 0.31
IC50 (HCC4018): 0.0042 µM
Selectivity (HBEC-30KT vs HCC4017) (HCC4017): 0.14
IC50 (HCC4017): 0.0065 µM
toxicity to normal vs patient-matched cancer cells (HCC4017; both paired cell lines): more toxic to normal cells than to the patient-matched cancer cells
IC50 (HBEC-30KT): 0.0009 µM
IC50 (HBEC-34KT): 0.0013 µM

SMILES: CC(/C=C/C(=O)NO)=C\[C@@H](C)C(=O)c1ccc(N(C)C)cc1 [TSA, trichostatin A, reference compound]
IC50 (HCC4018): 0.023 µM
IC50 (HCC4017): 0.073 µM
IC50 (HDAC6): 0.0086 ± 0.0014 µM
IC50 (HBEC-30KT): 0.285 µM
IC50 (HBEC-34KT): 0.346 µM
